Measured values taken from PMC5654968 (NPJ Systems Biology and Applications, 2017).
Like-named read-outs stand apart in the source and are kept apart here.

Legend:
[1] = Common metabolites in rat plasma by GC-MS/MS after polyI:C and/or maoto; type: in vivo
Description: Distilled water and saline were administered as vehicle to rats in each control group. […] Plasma cytokine levels were measured by ELISA or multiplex immunoassay; common metabolites and lipid mediators were analyzed by GC-MS/MS and LC-MS/MS, respectively.
1 The concentrations of TNF-α and IL-6 in plasma samples were evaluated by
2 ELISA (R&D Systems, Minneapolis, MN, USA). Multiplex immunoassays
3 (Milliplex, Merck KGaA, Darmstadt, Germany) were performed to quantify the
4 concentrations of IL-1β, IL-10 and INF-γ. Assays were performed according to
5 the manufacturer’s protocol.
If any outliers in the data set were determined to
10 be due to artifacts, they were excluded from the analysis. Data are presented as
11 mean ± SEM. Statistical significance of the data was determined by Welch’s
12 t-test with Bonferroni correction. The significance level in each statistical
13 analysis was set at P<0.05.
14 Analysis of metabolites by GC-MS/MS
15 Plasma samples obtained at 1, 2, 6 and 20 h after treatment were used for
16 analysis. To extract low molecular weight metabolites for GC-MS/MS analysis, […]

[2] = Plasma PK of major maoto compounds by LC-MS/MS after oral administration of maoto; type: in vivo, rat; conditions: for Tmax: read-out: Tmax
Description: 1 (7:00-19:00). Rats were maintained and used for the experiments in accordance
2 with the Guidelines for the Care and Use of Laboratory Animals of Tsumura &
3 CO. All experimental procedures were carried out upon approval from the
4 Laboratory Animal Committee of Tsumura & CO.
8 administered to 16-h fasted rats (n=3). […]
14 and 4 g/10mL/kg) were determined by LC-MS/MS. Based on a literature search,
16 amygdalin, prunasin, scopoletin, l-ephedrine, d-pseudoephedrine,
1 Plasma PK data were analyzed by noncompartmental modeling using
2 Phoenix WinNonlin (version 6.3, Certara L.P., St. Louis, MO, USA) to determine
3 various PK constants including Cmax, tmax, t1/2, and AUC0–last. The t1/2 was divided
4 by loge2/ke, where ke is the rate constant of terminal elimination (at least three
5 data points on the descending linear limb). […]

[3] = PM/P (polyI:C+maoto vs polyI:C), 1h
[4] = PM/P (polyI:C+maoto vs polyI:C), 2h
[5] = PM/P (polyI:C+maoto vs polyI:C), 6h
[6] = PM/P (polyI:C+maoto vs polyI:C), 20h
[7] = Sprague-Dawley, rat, plasma, po, 2 g/kg
[8] = Sprague-Dawley, rat, plasma, po, 2 g/kg, read-out: Cmax
[9] = Sprague-Dawley, rat, plasma, po, 4 g/kg
[10] = Sprague-Dawley, rat, plasma, po, 4 g/kg, read-out: Cmax
[11] = Sprague-Dawley, rat, plasma, po, 1 g/kg

For NC(N)=O [Urea], the “log2FC of plasma level” value ([1]; M/C (maoto vs control), 1h) was 0.05, the “log2FC of plasma level” value ([1]; M/C (maoto vs control), 2h) was -0.01 and the “log2FC of plasma level” value ([1]; M/C (maoto vs control), 6h) was -0.09. The “log2FC of plasma level” value ([1]; M/C (maoto vs control), 20h) was -0.07, the “log2FC of plasma level” value ([1]; P/C (polyI:C vs control), 1h) was -0.01 and the “log2FC of plasma level” value ([1]; P/C (polyI:C vs control), 2h) was 0.02. The “log2FC of plasma level” value ([1]; P/C (polyI:C vs control), 6h) was -0.05, the “log2FC of plasma level” value ([1]; P/C (polyI:C vs control), 20h) was 0.03 and the “log2FC of plasma level” value [1, 3] was -0.02. For the same compound, the “log2FC of plasma level” value [1, 4] was -0.03, the “log2FC of plasma level” value [1, 5] was -0.13 and the “log2FC of plasma level” value [1, 6] was 0.0096.
For O=C(CO)C(O)C(O)CO (centres unmarked) [Ribulose], the “log2FC of plasma level” value ([1]; M/C (maoto vs control), 1h) was 0.30, the “log2FC of plasma level” value ([1]; M/C (maoto vs control), 2h) was 0.01 and the “log2FC of plasma level” value ([1]; M/C (maoto vs control), 6h) was 0.06. For the same compound, the “log2FC of plasma level” value ([1]; M/C (maoto vs control), 20h) was 0.08, the “log2FC of plasma level” value ([1]; P/C (polyI:C vs control), 1h) was 0.24 and the “log2FC of plasma level” value ([1]; P/C (polyI:C vs control), 2h) was 0.14. The “log2FC of plasma level” value ([1]; P/C (polyI:C vs control), 6h) was 0.10, the “log2FC of plasma level” value ([1]; P/C (polyI:C vs control), 20h) was -0.04 and the “log2FC of plasma level” value [1, 3] was -0.26. For the same compound, the “log2FC of plasma level” value [1, 4] was -0.26, the “log2FC of plasma level” value [1, 5] was 0.02 and the “log2FC of plasma level” value [1, 6] was 0.0374.
For O=C[C@H](O)[C@H](O)[C@H](O)CO [Ribose], the “log2FC of plasma level” value ([1]; M/C (maoto vs control), 1h) was 0.41, the “log2FC of plasma level” value ([1]; M/C (maoto vs control), 2h) was 0.05 and the “log2FC of plasma level” value ([1]; M/C (maoto vs control), 6h) was -0.22. The “log2FC of plasma level” value ([1]; M/C (maoto vs control), 20h) was 0.16, the “log2FC of plasma level” value ([1]; P/C (polyI:C vs control), 1h) was 1.05 and the “log2FC of plasma level” value ([1]; P/C (polyI:C vs control), 2h) was 0.63. The “log2FC of plasma level” value ([1]; P/C (polyI:C vs control), 6h) was -0.22, the “log2FC of plasma level” value ([1]; P/C (polyI:C vs control), 20h) was -0.34 and the “log2FC of plasma level” value [1, 3] was -1.38. The “log2FC of plasma level” value [1, 4] was -0.72, the “log2FC of plasma level” value [1, 5] was -0.21 and the “log2FC of plasma level” value [1, 6] was 0.2160.
With O=C(O)Cc1cc(O)ccc1O [Homogentisic acid] the “log2FC of plasma level” value ([1]; M/C (maoto vs control), 1h) was 0.60, the “log2FC of plasma level” value ([1]; M/C (maoto vs control), 2h) was -0.05 and the “log2FC of plasma level” value ([1]; M/C (maoto vs control), 6h) was 0.23. For the same compound, the “log2FC of plasma level” value ([1]; M/C (maoto vs control), 20h) was 0.79, the “log2FC of plasma level” value ([1]; P/C (polyI:C vs control), 1h) was -0.05 and the “log2FC of plasma level” value ([1]; P/C (polyI:C vs control), 2h) was 0.24. The “log2FC of plasma level” value ([1]; P/C (polyI:C vs control), 6h) was 0.10, the “log2FC of plasma level” value ([1]; P/C (polyI:C vs control), 20h) was 0.75 and the “log2FC of plasma level” value [1, 3] was 0.68. The “log2FC of plasma level” value [1, 4] was -0.76, the “log2FC of plasma level” value [1, 5] was -0.18 and the “log2FC of plasma level” value [1, 6] was 0.0612.
In the case of NCC(=O)O [Glycine], the “log2FC of plasma level” value ([1]; M/C (maoto vs control), 1h) is reported as -0.06, the “log2FC of plasma level” value ([1]; M/C (maoto vs control), 2h) is reported as -0.10 and the “log2FC of plasma level” value ([1]; M/C (maoto vs control), 6h) is reported as -0.14. For the same compound, the “log2FC of plasma level” value ([1]; M/C (maoto vs control), 20h) was -0.06, the “log2FC of plasma level” value ([1]; P/C (polyI:C vs control), 1h) was -0.03 and the “log2FC of plasma level” value ([1]; P/C (polyI:C vs control), 2h) was -0.01. For the same compound, the “log2FC of plasma level” value ([1]; P/C (polyI:C vs control), 6h) was -0.02, the “log2FC of plasma level” value ([1]; P/C (polyI:C vs control), 20h) was -0.30 and the “log2FC of plasma level” value [1, 3] was -0.12. For the same compound, the “log2FC of plasma level” value [1, 4] was -0.42, the “log2FC of plasma level” value [1, 5] was -0.02 and the “log2FC of plasma level” value [1, 6] was 0.0873.
Oc1cc(O)c2c(c1)O[C@H](c1ccc(O)c(O)c1)[C@H](O)[C@H]2c1c(O)cc(O)c2c1O[C@H](c1ccc(O)c(O)c1)[C@H](O)C2 [Procyanidin B2] showed an AUC(0-t) [2, 7] of 0.172 ng·h/mL, a Cmax [2, 8] of 0.687 ng/mL and a Tmax [2, 7] of 1 h. For the same compound, the AUC(0-t) [2, 9] was 2.06 ng·h/mL, the Cmax [2, 10] was 4.64 ng/mL and the Tmax [2, 9] was 0.25 h. For the same compound, the AUClast ([2]; rat plasma, oral maoto 1 g/kg) was “BQL” and the Cmax ([2]; rat plasma, oral maoto 1 g/kg) was “BQL”.
With CN[C@@H](C)[C@H](O)c1ccccc1 [l-Ephedrine, l-ephedrine] the AUC(0-t) [2, 11] was 730 ng·h/mL, the half-life [2, 11] was 1.35 h and the Cmax ([2]; Sprague-Dawley, rat, plasma, po, 1 g/kg, read-out: Cmax) was 311 ng/mL. For the same compound, the Tmax [2, 11] was 0.25 h, the AUC(0-t) [2, 7] was 1560 ng·h/mL and the half-life [2, 7] was 1.44 h. The Cmax [2, 8] was 377 ng/mL, the Tmax [2, 7] was 1 h and the AUC(0-t) [2, 9] was 2850 ng·h/mL. It also gave a half-life [2, 9] of 4.19 h, a Cmax [2, 10] of 545 ng/mL and a Tmax [2, 9] of 0.25 h.
